What follows are molecules tested against MAPK14 (human) (UniProt Q16539) (assay: Enzyme Assay).
MAPK14 (human), sequence (Q16539 whole entry, looked up): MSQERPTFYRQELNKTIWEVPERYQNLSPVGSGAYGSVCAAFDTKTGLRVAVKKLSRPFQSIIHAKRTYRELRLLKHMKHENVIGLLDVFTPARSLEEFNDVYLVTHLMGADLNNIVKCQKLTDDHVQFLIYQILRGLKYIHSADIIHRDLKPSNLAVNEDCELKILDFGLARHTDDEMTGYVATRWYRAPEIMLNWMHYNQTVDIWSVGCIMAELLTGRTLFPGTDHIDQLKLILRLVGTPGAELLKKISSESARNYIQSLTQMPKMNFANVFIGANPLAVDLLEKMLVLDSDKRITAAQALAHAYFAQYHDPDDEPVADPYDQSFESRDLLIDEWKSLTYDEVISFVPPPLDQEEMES

| IC50 | SMILES |
| --- | --- |
| < 10 nM | C[C@H]1COCCN1c1nnc2ccc(O[C@@H]3CC[C@H](NC(=O)Nc4cc(C(C)(C)C)nn4CCN4CCOCC4)c4ccccc43)cn12 |
| < 10 nM | Cc1ccc(-n2nc(C(C)(C)C)cc2NC(=O)N[C@H]2CC[C@@H](Oc3ccc4nnc(N5CCCC[C@H]5C)n4c3)c3ccccc32)cc1 |
| < 10 nM | C[C@H]1CCCCN1c1nnc2ccc(O[C@@H]3CC[C@H](NC(=O)Nc4cc(C(C)(C)C)nn4-c4cccc(OCCN5CCCC5)c4)c4ccccc43)cn12 |
| < 10 nM | Cc1ccc(-n2nc(C(C)(C)C)cc2NC(=O)N[C@H]2CC[C@@H](Oc3ccc4nnc(-c5cccc(CN6CCOCC6)c5)n4c3)c3ccccc32)cc1 |
| 10 to 100 nM | Cc1ccc(-n2nc(C(C)(C)C)cc2NC(=O)N[C@H]2CC[C@@H](Oc3ccc4nnc(-c5ccc(CN6CCOCC6)nc5)n4c3)c3ccccc32)cc1 |
| < 10 nM | Cc1ccc(-n2nc(C(C)(C)C)cc2NC(=O)N[C@H]2CC[C@@H](Oc3ccc4nnc(N5CCCOCC5)n4c3)c3ccccc32)cc1 |
| < 10 nM | Cc1ccc(-n2nc(C(C)(C)C)cc2NC(=O)N[C@H]2CC[C@@H](Oc3ccc4nnc([C@H]5CCCN5C)n4c3)c3ccccc32)cc1 |
| < 10 nM | CC(C)(C)c1cc(NC(=O)N[C@H]2CC[C@@H](Oc3ccc4nnc(N5CCCCC5)n4c3)c3ccccc32)n(-c2cnn(CCCN3CCOCC3)c2)n1 |
| < 10 nM | C[C@@H]1CCC[C@H](C)N1c1nnc2ccc(O[C@@H]3CC[C@H](NC(=O)Nc4cc(C(C)(C)C)nn4-c4cnn(CCN(C)C)c4)c4ccccc43)cn12 |
| < 10 nM | CC(C)N(c1nnc2ccc(O[C@@H]3CC[C@H](NC(=O)Nc4cc(C(C)(C)C)nn4-c4cccc(OCCN(C)C)c4)c4ccccc43)cn12)C(C)C |
| < 10 nM | CN1CCN(Cc2ccc(-n3nc(C(C)(C)C)cc3NC(=O)N[C@H]3CC[C@@H](Oc4ccc5nnc(N6CCCCC6)n5c4)c4ccccc43)cc2)CC1 |
| < 10 nM | Cc1ccc(-n2nc(C(C)(C)CO)cc2NC(=O)N[C@H]2CC[C@@H](Oc3ccc4nnc(N5CCCCC5)n4c3)c3ccccc32)cc1 |
| < 10 nM | Cc1ccc(-n2nc(C(C)(C)C)cc2NC(=O)N[C@H]2CC[C@@H](Oc3ccc4nnc(CC5CCN(C)CC5)n4c3)c3ccccc32)cc1 |
| < 10 nM | Cc1ccc(-n2nc(C(C)(C)C)cc2NC(=O)N[C@H]2CC[C@@H](Oc3ccc4nnc(C(C)(C)N5CCCC5)n4c3)c3ccccc32)cc1 |
| < 10 nM | COc1c(NC(=O)N[C@H]2CC[C@@H](Oc3ccc4nnc([C@@H]5CCCN5C)n4c3)c3ccccc32)cc(C(C)(C)C)cc1NS(C)(=O)=O |
| < 10 nM | CC(C)(C)c1cc(NC(=O)N[C@H]2CC[C@@H](Oc3ccc4nnc(N5CCCCC5)n4c3)c3ccccc32)n(-c2cccc(CN3CCN(CCO)CC3)c2)n1 |
| < 10 nM | Cc1ccc(-n2nc(C(C)(C)C)cc2NC(=O)N[C@H]2CC[C@@H](Oc3ccc4nnc(C5(N(C)C)CCCC5)n4c3)c3ccccc32)cc1 |
| < 10 nM | C[C@H]1COCCN1c1nnc2ccc(O[C@@H]3CC[C@H](NC(=O)Nc4cc(C(C)(C)C)nn4CCO)c4ccccc43)cn12 |
| < 10 nM | C[C@@H]1CCC[C@H](C)N1c1nnc2ccc(O[C@@H]3CC[C@H](NC(=O)Nc4cc(C(C)(C)C)nn4-c4cccc(OCCN(C)C)c4)c4ccccc43)cn12 |
| < 10 nM | COC1CCN(CCOc2cccc(-n3nc(C(C)(C)C)cc3NC(=O)N[C@H]3CC[C@@H](Oc4ccc5nnc(N6CCCC[C@@H]6C)n5c4)c4ccccc43)c2)CC1 |
| < 10 nM | Cc1ccc(-n2nc(C(C)(C)C)cc2NC(=O)N[C@H]2CC[C@@H](Oc3ccc4nnc(N5CCC[C@H]5CO)n4c3)c3ccccc32)cc1 |
| < 10 nM | C[C@H]1CCCCN1c1nnc2ccc(O[C@@H]3CC[C@H](NC(=O)Nc4cc(C(C)(C)C)nn4CCO)c4ccccc43)cn12 |
| < 10 nM | CN1CCCC[C@H]1c1nnc2ccc(O[C@@H]3CC[C@H](NC(=O)Nc4cc(C(C)(C)C)nn4-c4ccc(CO)cc4)c4ccccc43)cn12 |
| < 10 nM | Cc1ccc(-n2nc(C(C)(C)C)cc2NC(=O)N[C@H]2CC[C@@H](Oc3ccc4nnc(N5CCN(C)CC5)n4c3)c3ccccc32)cc1 |
| < 10 nM | C[C@H]1CCCCN1c1nnc2ccc(O[C@@H]3CC[C@H](NC(=O)Nc4cc(C(C)(C)C)nn4CCN4CCOCC4)c4ccccc43)cn12 |

Source: the Kinase Knowledgebase extract (Sharma et al. 2016)
